# Measured values published in publication PMC6211316, “Synthesis and biological evaluation of 3-arylcoumarin derivatives as potential anti-diabetic agents” (Journal of Enzyme Inhibition and Medicinal Chemistry, 2018).
# Experiments:
# [1] = hydroxyl radical scavenging; conditions: mean ± SD (n = 3), read-out: OH IC50 Value
# In short: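 Fenton system of H2O2 (0.03%), FeSO4 (2 mmol/L) and salicylic acid (10 mmol/L) with compound solutions (0.4–2.0 mg/mL), incubated 30 min at 37 °C. Absorbance read at 510 nm. % OH scavenging = [A0−(A1−A2)]/A0×100, with A2 a sample blank using ethanol in place of salicylic acid.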
# [2] = biological target: T1, α-Glucosidase (Saccharomyces cerevisiae, UniProt P53341); assay: biochemical; type: biochemical; conditions: for α-glucosidase inhibitory activity (in words): in vitro; for IC50: mean ± SD (n = 3), read-out: α-Glucosidase inhibitory activity IC50 Value
# T1 construct: purchased Sigma Aldrich G0660-750UN
# T1 sequence (P53341 whole entry): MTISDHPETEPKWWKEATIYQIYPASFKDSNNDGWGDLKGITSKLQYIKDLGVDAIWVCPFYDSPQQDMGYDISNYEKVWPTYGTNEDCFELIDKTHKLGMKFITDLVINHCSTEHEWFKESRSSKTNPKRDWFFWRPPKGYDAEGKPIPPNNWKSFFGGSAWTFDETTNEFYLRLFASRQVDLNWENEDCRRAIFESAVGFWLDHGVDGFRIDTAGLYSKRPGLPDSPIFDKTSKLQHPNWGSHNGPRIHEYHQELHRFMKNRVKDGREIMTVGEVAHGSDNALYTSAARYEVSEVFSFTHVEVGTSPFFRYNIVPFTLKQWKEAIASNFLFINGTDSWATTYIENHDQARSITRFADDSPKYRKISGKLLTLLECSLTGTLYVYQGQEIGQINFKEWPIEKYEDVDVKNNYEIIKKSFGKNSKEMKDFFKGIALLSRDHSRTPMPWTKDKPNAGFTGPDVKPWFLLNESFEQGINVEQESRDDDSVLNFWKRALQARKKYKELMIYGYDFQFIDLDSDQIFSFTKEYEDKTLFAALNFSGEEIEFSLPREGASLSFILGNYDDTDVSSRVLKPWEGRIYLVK
# In short: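 Absorbance at 405 nm of released p-nitrophenol gave % inhibition, corrected for blank and sample-blank wells, and IC50 values, all in triplicate. Reactions combined yeast enzyme, PNPG and test compound in pH 6.8 phosphate buffer (100 mM) at 37 °C for 20 min following a 10-min preincubation, ended with Na2CO3.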
# [3] = system: normal mice; assay: Acute hypoglycemic assay in normal mice; type: in vivo
# Protocol: STZ-induced diabetic mice and normal mice were placed in single cages with wire-net floors and deprived of food for 12 h before experimentation but allowed free access to tap water throughout. The compounds (at the doses of 10, 30, and 100 mg/kg of bw) were suspended in 0.05% Tween-80 in saline solution. Glibenclamide (10 mg/kg of bw) was suspended in the same vehicle. The target compounds were freshly prepared immediately before experimentation and administered by the intragastrical route at the doses of 10 ml/kg of bw. Control mice received only the vehicle (0.05% Tween-80 in saline solution) by the same route. Blood glucose levels were measured at 0, 1.5, 3, 5, 7, and 9 h after drugs administration.
# [4] = system: STZ-induced diabetic mice; assay: Daily treatment for 16 days in STZ-induced diabetic mice; type: in vivo; conditions: for bw loss in hyperglycemic mice: 30 mg/kg of bw daily per os; for long-term anti-hyperglycemic effect (blood glucose levels): 30 mg/kg of bw oral, once a day, for 16 days
# Protocol: Thereafter, the target compounds 11, 17, 35, and glibenclamide were administered once (9 a.m.) on a daily basis, for a period of 16 days, to STZ-induced diabetic mice which were divided into five groups (A-E). A six group of normal mice (Group F) was used as a control. Groups E (diabetic control) and F received vehicle (0.05% Tween-80 in saline solution) per os for 16 days. Group A received glibenclamide (10 mg/kg of bw daily). Groups B–D received different treatments: B, compound 11 (30 mg/kg of bw daily); C, compound 17 (30 mg/kg of bw daily); D, compound 35 (30 mg/kg of bw daily). All tested materials were suspended in the same vehicle and administered per os daily for 16 days. The animals were housed under standard laboratory conditions and maintained with free access to water and food during all the experiment. Blood glucose concentration on animals of diabetic (Groups A–E) and control group (Group F) was estimated at days 1, 4, 7, 10, 13, and 16. The bw of the animals were measured concomitantly to the blood glucose analyses. All experiments were carried out using six animals per group.
Compound,IC50 [1] [µM],α-glucosidase inhibitory activity (in words) [2],IC50 [2] [µM],"Blood glucose concentration ([3]; 10 mg/kg of bw per os, 0h) [mM]","% Variation of glycemia ([3]; 10 mg/kg of bw per os, 1.5h)","Blood glucose concentration ([3]; 10 mg/kg of bw per os, 1.5h) [mM]","% Variation of glycemia ([3]; 10 mg/kg of bw per os, 3h)","Blood glucose concentration ([3]; 10 mg/kg of bw per os, 3h) [mM]","% Variation of glycemia ([3]; 10 mg/kg of bw per os, 5h)","Blood glucose concentration ([3]; 10 mg/kg of bw per os, 5h) [mM]","% Variation of glycemia ([3]; 10 mg/kg of bw per os, 7h)","Blood glucose concentration ([3]; 10 mg/kg of bw per os, 7h) [mM]","% Variation of glycemia ([3]; 10 mg/kg of bw per os, 9h)","Blood glucose concentration ([3]; 10 mg/kg of bw per os, 9h) [mM]","Blood glucose concentration ([3]; 30 mg/kg of bw per os, 0h) [mM]","% Variation of glycemia ([3]; 30 mg/kg of bw per os, 1.5h)","Blood glucose concentration ([3]; 30 mg/kg of bw per os, 1.5h) [mM]","% Variation of glycemia ([3]; 30 mg/kg of bw per os, 3h)","Blood glucose concentration ([3]; 30 mg/kg of bw per os, 3h) [mM]","% Variation of glycemia ([3]; 30 mg/kg of bw per os, 5h)",further results
"O=c1oc2ccc(O)cc2cc1-c1ccc(O)cc1 [Compound 17, 6-Hydroxy-3-(4-hydroxyphenyl)-coumarin]",> 1000,moderate to excellent inhibitory activity,11.5 ± 1.3,10.6 ± 0.4,(−23.96) %,7.9 ± 0.7,(−34.19) %,6.9 ± 0.8,(−45.37) %,5.7 ± 0.7,(−48.56) %,5.4 ± 0.5,(−51.12) %,5.1 ± 0.4,10.8 ± 0.3,(−18.39) %,8.4 ± 1.0,(−33.55) %,6.9 ± 0.9,(−48.71) %,"Blood glucose concentration ([3]; 30 mg/kg of bw per os, 5h): 5.3 ± 0.7 mM; % Variation of glycemia ([3]; 30 mg/kg of bw per os, 7h): (−48.71) %; Blood glucose concentration ([3]; 30 mg/kg of bw per os, 7h): 5.3 ± 1.1 mM; % Variation of glycemia ([3]; 30 mg/kg of bw per os, 9h): (−56.45) %; Blood glucose concentration ([3]; 30 mg/kg of bw per os, 9h): 4.5 ± 0.6 mM; Blood glucose concentration ([3]; 100 mg/kg of bw per os, 0h): 10.4 ± 0.2 mM; % Variation of glycemia ([3]; 100 mg/kg of bw per os, 1.5h): (−25.90) %; Blood glucose concentration ([3]; 100 mg/kg of bw per os, 1.5h): 7.5 ± 1.2 mM; % Variation of glycemia ([3]; 100 mg/kg of bw per os, 3h): (−37.71) %; Blood glucose concentration ([3]; 100 mg/kg of bw per os, 3h): 6.3 ± 0.9 mM; % Variation of glycemia ([3]; 100 mg/kg of bw per os, 5h): (−49.18) %; Blood glucose concentration ([3]; 100 mg/kg of bw per os, 5h): 5.2 ± 0.5 mM; % Variation of glycemia ([3]; 100 mg/kg of bw per os, 7h): (−53.44) %; Blood glucose concentration ([3]; 100 mg/kg of bw per os, 7h): 4.7 ± 0.4 mM; % Variation of glycemia ([3]; 100 mg/kg of bw per os, 9h): (−58.03) %; Blood glucose concentration ([3]; 100 mg/kg of bw per os, 9h): 4.3 ± 0.4 mM; bw loss in hyperglycemic mice ([4]; 16 days): prevented bw loss; long-term anti-hyperglycemic effect (blood glucose levels) [4]: induced obviously anti-hyperglycemic effect"
"COc1ccc(-c2cc3c(O)cc(O)cc3oc2=O)cc1 [Compound 35, 5,7-Dihydroxy-3-(4-methoxyphenyl)-coumarin]",270 ± 41.6,moderate to excellent inhibitory activity,10.8 ± 0.63,10.8 ± 0.6,(−14.55) %,9.2 ± 0.6,(−24.15) %,8.2 ± 0.5,(−25.70) %,8.0 ± 0.4,(−31.27) %,7.4 ± 0.5,(−34.06) %,7.1 ± 0.3,10.5 ± 0.9,(−17.72) %,8.7 ± 1.0,(−31.65) %,7.2 ± 0.8,(−39.24) %,"Blood glucose concentration ([3]; 30 mg/kg of bw per os, 5h): 6.4 ± 1.0 mM; % Variation of glycemia ([3]; 30 mg/kg of bw per os, 7h): (−44.94) %; Blood glucose concentration ([3]; 30 mg/kg of bw per os, 7h): 5.8 ± 0.7 mM; % Variation of glycemia ([3]; 30 mg/kg of bw per os, 9h): (−44.30) %; Blood glucose concentration ([3]; 30 mg/kg of bw per os, 9h): 5.9 ± 0.6 mM; Blood glucose concentration ([3]; 100 mg/kg of bw per os, 0h): 10.6 ± 0.4 mM; % Variation of glycemia ([3]; 100 mg/kg of bw per os, 1.5h): (−18.18) %; Blood glucose concentration ([3]; 100 mg/kg of bw per os, 1.5h): 8.7 ± 0.5 mM; % Variation of glycemia ([3]; 100 mg/kg of bw per os, 3h): (−40.44) %; Blood glucose concentration ([3]; 100 mg/kg of bw per os, 3h): 6.3 ± 1.0 mM; % Variation of glycemia ([3]; 100 mg/kg of bw per os, 5h): (−49.22) %; Blood glucose concentration ([3]; 100 mg/kg of bw per os, 5h): 5.4 ± 0.6 mM; % Variation of glycemia ([3]; 100 mg/kg of bw per os, 7h): (−55.17) %; Blood glucose concentration ([3]; 100 mg/kg of bw per os, 7h): 4.8 ± 0.6 mM; % Variation of glycemia ([3]; 100 mg/kg of bw per os, 9h): (−57.05) %; Blood glucose concentration ([3]; 100 mg/kg of bw per os, 9h): 4.6 ± 0.7 mM; bw loss in hyperglycemic mice ([4]; 16 days): prevented bw loss; blood glucose levels at the end of the experiment ([4]; 30 mg/kg of bw daily, 16 days): restored blood glucose levels to near normal values; long-term anti-hyperglycemic effect (blood glucose levels) [4]: induced obviously anti-hyperglycemic effect"
"Cc1ccccc1-c1cc2ccc(O)cc2oc1=O [Compound 11, 7-Hydroxy-3-(2-methylphenyl)-coumarin]",> 1000,moderate to excellent inhibitory activity,16.4 ± 1.23,10.0 ± 0.7,(−15.27) %,9.1 ± 0.2,(−28.35) %,7.7 ± 0.6,(−38.01) %,6.6 ± 0.5,(−47.98) %,5.6 ± 0.4,(−48.91) %,5.5 ± 1.2,10.2 ± 1.2,(−13.62) %,8.7 ± 1.2,(−30.90) %,6.9 ± 1.1,(−40.86) %,"Blood glucose concentration ([3]; 30 mg/kg of bw per os, 5h): 5.9 ± 1.1 mM; % Variation of glycemia ([3]; 30 mg/kg of bw per os, 7h): (−47.84) %; Blood glucose concentration ([3]; 30 mg/kg of bw per os, 7h): 5.2 ± 0.8 mM; % Variation of glycemia ([3]; 30 mg/kg of bw per os, 9h): (−49.17) %; Blood glucose concentration ([3]; 30 mg/kg of bw per os, 9h): 5.1 ± 0.6 mM; Blood glucose concentration ([3]; 100 mg/kg of bw per os, 0h): 10.4 ± 0.7 mM; % Variation of glycemia ([3]; 100 mg/kg of bw per os, 1.5h): (−31.37) %; Blood glucose concentration ([3]; 100 mg/kg of bw per os, 1.5h): 7.0 ± 1.1 mM; % Variation of glycemia ([3]; 100 mg/kg of bw per os, 3h): (−42.16) %; Blood glucose concentration ([3]; 100 mg/kg of bw per os, 3h): 5.9 ± 0.6 mM; % Variation of glycemia ([3]; 100 mg/kg of bw per os, 5h): (−52.94) %; Blood glucose concentration ([3]; 100 mg/kg of bw per os, 5h): 4.8 ± 1.3 mM; % Variation of glycemia ([3]; 100 mg/kg of bw per os, 7h): (−54.25) %; Blood glucose concentration ([3]; 100 mg/kg of bw per os, 7h): 4.7 ± 0.4 mM; % Variation of glycemia ([3]; 100 mg/kg of bw per os, 9h): (−58.17) %; Blood glucose concentration ([3]; 100 mg/kg of bw per os, 9h): 4.3 ± 0.3 mM; bw loss in hyperglycemic mice ([4]; 16 days): prevented bw loss; long-term anti-hyperglycemic effect (blood glucose levels) [4]: less efficient in decreasing blood glucose levels"
"Cc1ccc(-c2cc3c(O)cc(O)cc3oc2=O)cc1 [Compound 25, 5,7-Dihydroxy-3-(4-methylphenyl)-coumarin]",> 1000,moderate to excellent inhibitory activity,11.5 ± 0.37,,,,,,,,,,,,,,,,,,
